Results published in patent US12312628B2, “Metabolic control over organometallic catalysts using electroactive bacteria” (THE BOARD OF REGENTS OF THE UNIVERSITY OF TEXAS SYSTEM, priority 2018, dated 2025).

Assays:
S. oneidensis MR-1 = assay: Bacterial viability after polymerization (LIVE/DEAD BacLight, CFU counting); type: cell-based, Shewanella oneidensis
Protocol: Bacterial viability was determined by CFU counting and staining with the LIVE/DEAD BacLight Viability Kit (Invitrogen). For CFU counting, serial dilutions from the Cu-TPMA polymerization reaction and a control culture containing 20 mM sodium lactate and 40 mM sodium fumarate were plated onto LB agar containing 20 mM sodium lactate and 40 mM sodium fumarate, and incubated anaerobically for 18 hours. The LIVE/DEAD BacLight Viability Kit was used according to manufacturer instructions. Briefly, cells were harvested after polymerization and washed 3× with 0.85% saline by centrifugation at 6000×g for 20 min. Cells were concentrated to an OD600 of ˜2.0 and incubated with the LIVE/DEAD BacLight Bacterial Viability dye mixture in the dark for 15 minutes. Excess, unbound dye was removed by repeated centrifugation and washing with 0.85% saline (total of 5 washes). 20 μL of cells were placed on glass slides, allowed to settle, and covered with a 0.17 mm coverslip. Excess moisture was wicked from the slide edges and the coverslips were sealed with nail polish. A Zeiss Axiovert 200M Fluorescent Microscope was used to image live and dead cells at room temperature. Images were captured using 475/40 nm excitation and 530/50 nm emission for green (live) fluorescence and 560/40 nm excitation and 630/75 nm emission for red (dead) fluorescence with a 40× oil objective. Cell counts to determine the viable population percentages were quantified by thresholding using Fiji 1.0 software from at least 3 different fields of view. Representative images were background subtracted using a rolling ball radius of 10 pixels in Fiji 1.0.

E. coli = conditions: polymerization conditions, Cu(II/I) 2 μM
[1] = system: S. oneidensis genomic knockout strain (ΔmtrCΔomcAΔmtrF) with BUFFER GATE/sfGFP plasmid; assay: BUFFER GATE/sfGFP reporter response to inducer; type: cell-based, Shewanella oneidensis; conditions: various concentrations of IPTG
From the text: An S. oneidensis strain/plasmid system was developed that tunes extracellular electron transfer via BUFFER GATE-controlled expression of mtrC. The BUFFER GATE sets gene expression as ‘off’ in the absence of a user-defined signal (e.g., small-molecule, light, heat). However, in the signal's presence, the BUFFER GATE turns gene expression ‘on’. A BUFFER GATE was constructed by encoding the LacI repressor and Ptac promoter pairing on a plasmid, which together can modulate transcription of promoter-downstream genes based on culture concentration of the small-molecule Isopropyl β-D-1-thiogalactopyranoside or IPTG. To test the functionality and dynamic range of gene expression actuated by this BUFFER GATE, a plasmid was constructed that placed a ribozyme-insulated fluorescent reporter gene, superfolder GFP or sfGFP, downstream of the Ptac promoter. This BUFFER GATE/sfGFP plasmid was used to transform an S. oneidensis genomic knockout strain (ΔmtrCΔomcAΔmtrF) and sfGFP fluorescence was measured at various concentrations of IPTG. Using this S. oneidensis strain, 488/530 nm fluorescence varied over about 2 orders of magnitude (FIG. 11).

[Cu+] [Cu(I)]
inhibition of MR-1 growth (S. oneidensis MR-1; after 24 hours of polymerization, CuSO4·5H2O and EDTA): minimal inhibition

O.O.O.O.O.O=S(=O)([O-])[O-].[Cu+2] [Cu(II), Cupric sulfate pentahydrate]
post-polymerization viability (S. oneidensis MR-1; MR-1, polymerization conditions, Cu(II/I) 2 μM): 74% | MR-1 colony forming units (CFUs) following polymerization (S. oneidensis MR-1; optimized polymerization conditions, Cu(II/I) 2 μM and below): No significant difference | post-polymerization viability (E. coli): 86%

CC(C)S[C@@H]1O[C@H](CO)[C@H](O)[C@H](O)[C@H]1O [IPTG, Isopropyl β-D-1-thiogalactopyranoside]
sfGFP 488/530 nm fluorescence variation [1]: about 2 orders of magnitude
